According to patent US20070254877A1, “Indole Derivative and Use for Treatment of Cancer” (Takada Pharmaceutical Company Limited, priority 2004, published 2007):
Structures can show the parent of a compound that is named as a salt.

Molecular target: T1, VEGFR2 intracellular domain protein (Homo sapiens, UniProt P35968)
T1 construct: made in house; host or cells: SF-21 insect cells infected with recombinant baculovirus BAC-VEGFR2
Experiment: Determination of VEGF Receptor 2 Kinase (VEGFR2) inhibitory activity (AlphaScreen)
Format: biochemical
Conditions: test compound at 1 μM; ATP 25 μM buffer, 25° C., 5 min; read-out: kinase inhibitory rate (%)
Description: Human VEGF receptor 2 (hereinafter to be abbreviated as VEGFR2) gene was cloned by PCR using cDNA Libraries Human Placenta (Clontech) as a template. The primer used for PCR was prepared from nucleotide sequence (Genbank Accession AF035121) information of VEGFR2 gene by adding a nucleotide sequence encoding flag peptide and a restriction enzyme recognition sequence to a nucleotide sequence (2671-4374 of Genbank Accession AF035121) encoding the VEGFR2 intracellular domain region, so that the protein contains an N-terminal flag tag. The primer nucleotide sequence is shown below.
SF-21 cells were sown at 1×10^6 cells/ml to Sf-900II SFM medium (1 L, Invitrogen) containing 10% fetal bovine serum (trace), 50 mg/L gentamicin (Invitrogen) and 0.1% Pluronic F-68 (Invitrogen), and shaking culture was performed using a 2 L volume Erlenmeyer flask at 27° C., 100 rpm. After culturing for 24 hrs, recombinant baculovirus BAC-VEGFR2 (13.4 mL) was added, and the mixture was further cultured for 3 days. The culture medium was centrifuged at 2,000 rpm for 5 min to give virus-infected cells. The infected cells were washed with a phosphate buffered saline (Invitrogen), centrifuged under the same conditions, and the cells were preserved at −80° C. The cryopreserved cells were thawed in ice, suspended in buffer A (50 mM Tris buffer (30 mL, pH 7.4) containing 20% glycerol, 0.15 M NaCl) supplemented with Complete Protease Inhibitor (Boehringer), and ruptured 3 times with a Polytron homogenizer (Kinematica) at 20,000 rpm for 30 sec. The rupture medium was clarified by centrifugation at 40,000 rpm for 30 min and filtered with a 0.45 μm filter. The filtrate was passed through a column packed with Anti-FLAG M2 Affinity Gel (4 mL, Sigma) at a flow rate of about 0.5 mL/min. The column was washed with buffer A, and eluted with buffer A containing 100 μg/mL of FLAG peptide. The eluate was concentrated with Vivaspin 20 (Vivascience) having a molecular weight cut off of 30K. The buffer of this concentrate was exchanged using NAP™ 25 column (Amersham Bioscience) equilibrated with buffer A. The fractions containing VEGFR2 intracellular domain protein were collected, glycerol was added to the final concentration of 50% and cryopreserved at −80° C.
A test compound dissolved in dimethyl sulfoxide (DMSO) was diluted with a buffer (50 mM Tris-HCl (pH 7.5), 5 mM MgCl2, 5 mM MnCl2, 2 mM dithiothreitol, 0.01% Tween-20). To this compound solution (5 μl) was added a buffer […] containing 50 ng/ml of VEGFR2 intracellular domain protein and 250 ng/ml of biotin labeled polypeptide biotinyl-poly-Glu:Tyr (4:1) (CIS bio International). To the obtained mixture was added a buffer (10 μl) containing ATP (25 μM), the mixture was allowed to react at 25° C. for 5 min and the reaction was quenched with 25 μl of a stop solution (100 mM EDTA disodium salt, 62.5 mM HEPES buffer (pH 7.4), 250 mM NaCl, 0.1% bovine serum albumin, 10 μg/ml AlphaScreen assay streptavidin donor beads (Streptavidin Donor beads: PerkinElmer), 10 μg/ml AlphaScreen assay anti-phosphotyrosine recognition antibody PY-100 binding acceptor beads (Anti-phosphotyrosine (P-Tyr-100) Acceptor beads: PerkinElmer)). The reaction solution was allowed to stand at 25° C. for 16 hrs, and the […] using a plate reader Fusion™ (manufactured by PerkinElmer). The kinase inhibitory rate (%) of the test compound was calculated by the following formula: Inhibitory rate (%)=(1−(count of test compound−blank)÷(control−blank))×100
The count of the solution reacted without addition of the compound was used as a “control”, and the count of the solution without the compound and ATP was used as a “blank”.

T1 sequence (P35968 786-1356 limits assumed): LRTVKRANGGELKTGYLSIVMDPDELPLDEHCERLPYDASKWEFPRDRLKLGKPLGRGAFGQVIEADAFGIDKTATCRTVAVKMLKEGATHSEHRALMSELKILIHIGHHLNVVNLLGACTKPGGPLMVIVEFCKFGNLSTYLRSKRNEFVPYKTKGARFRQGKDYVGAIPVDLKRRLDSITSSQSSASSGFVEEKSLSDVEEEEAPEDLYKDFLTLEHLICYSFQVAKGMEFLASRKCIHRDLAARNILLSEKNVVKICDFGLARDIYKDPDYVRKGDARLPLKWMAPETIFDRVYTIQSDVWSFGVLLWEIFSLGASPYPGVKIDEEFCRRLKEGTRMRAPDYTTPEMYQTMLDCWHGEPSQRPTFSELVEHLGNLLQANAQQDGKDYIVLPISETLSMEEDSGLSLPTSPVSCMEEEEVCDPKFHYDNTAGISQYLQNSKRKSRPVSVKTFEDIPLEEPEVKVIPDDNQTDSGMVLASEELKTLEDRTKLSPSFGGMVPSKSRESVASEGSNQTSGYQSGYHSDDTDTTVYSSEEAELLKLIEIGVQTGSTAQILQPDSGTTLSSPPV

inhibition at 1 µM | SMILES
≥ 90% | O=C(c1ccc2[nH]c3c(c2c1)CCCc1cn[nH]c1-3)N1CCC(N2CCCCCC2)CC1 [Example 11, 8-[(4-azepan-1-ylpiperidin-1-yl)carbonyl]-4,5,6,11-tetrahydro-1H-pyrazolo[4′,3′:6,7]cyclohepta[1,2-b]indole hydrochloride]
≥ 90% | O=C(c1ccc2[nH]c3c(c2c1)CCCc1cn[nH]c1-3)N1CCC(N2CCSCC2)CC1 [Example 15, 8-[(4-thiomorpholin-4-ylpiperidin-1-yl)carbonyl]-4,5,6,11-tetrahydro-1H-pyrazolo[4′,3′:6,7]cyclohepta[1,2-b]indole hydrochloride]
≥ 80% | O=C(c1ccc2[nH]c3c(c2c1)CCCc1cn[nH]c1-3)N1CCC(O)(c2cccc(Cl)c2)CC1 [Example 45, 4-(3-chlorophenyl)-1-(4,5,6,11-tetrahydro-1H-pyrazolo[4′,3′:6,7]cyclohepta[1,2-b]indol-8-ylcarbonyl)piperidin-4-ol]
≥ 80% | O=C(c1ccc2[nH]c3c(c2c1)CCCc1cn[nH]c1-3)N1CCC(O)(c2ccccc2C(F)(F)F)CC1 [Example 49, 1-(4,5,6,11-tetrahydro-1H-pyrazolo[4′,3′:6,7]cyclohepta[1,2-b]indol-8-ylcarbonyl)-4-[2-(trifluoromethyl)phenyl]piperidin-4-ol]
≥ 80% | O=C(c1ccc2[nH]c3c(c2c1)CCCc1cn[nH]c1-3)N1CCC(O)(c2ccc(Cl)cc2)CC1 [Example 44, 4-(4-chlorophenyl)-1-(4,5,6,11-tetrahydro-1H-pyrazolo[4′,3′:6,7]cyclohepta[1,2-b]indol-8-ylcarbonyl)piperidin-4-ol]
≥ 90% | O=C(c1ccc2[nH]c3c(c2c1)CCCc1cn[nH]c1-3)N1CCC(NCc2ccccc2)CC1 [Example 17, N-benzyl-1-(4,5,6,11-tetrahydro-1H-pyrazolo[4′,3′:6,7]cyclohepta[1,2-b]indol-8-ylcarbonyl)piperidin-4-amine hydrochloride]
≥ 80% | O=C(c1ccc2[nH]c3c(c2c1)CCCc1cn[nH]c1-3)N1CCC(O)(c2cccc(F)c2)CC1 [Example 42, 4-(3-fluorophenyl)-1-(4,5,6,11-tetrahydro-1H-pyrazolo[4′,3′:6,7]cyclohepta[1,2-b]indol-8-ylcarbonyl)piperidin-4-ol]
≥ 80% | O=C(c1ccc2[nH]c3c(c2c1)CCCc1cn[nH]c1-3)N1CCC(O)(c2ccc(F)cc2)CC1 [Example 41, 4-(4-fluorophenyl)-1-(4,5,6,11-tetrahydro-1H-pyrazolo[4′,3′:6,7]cyclohepta[1,2-b]indol-8-ylcarbonyl)piperidin-4-ol]
≥ 80% | O=C(c1ccc2[nH]c3c(c2c1)CCCc1cn[nH]c1-3)N1CCC(O)(c2ccc(C(F)(F)F)cc2)CC1 [Example 47, 1-(4,5,6,11-tetrahydro-1H-pyrazolo[4′,3′:6,7]cyclohepta[1,2-b]indol-8-ylcarbonyl)-4-[4-(trifluoromethyl)phenyl]piperidin-4-ol]
≥ 80% | O=C(c1ccc2[nH]c3c(c2c1)CCCc1cn[nH]c1-3)N1CCC(O)(c2ccccc2Cl)CC1 [Example 46, 4-(2-chlorophenyl)-1-(4,5,6,11-tetrahydro-1H-pyrazolo[4′,3′:6,7]cyclohepta[1,2-b]indol-8-ylcarbonyl)piperidin-4-ol]
≥ 80% | O=C(c1ccc2[nH]c3c(c2c1)CCCc1cn[nH]c1-3)N1CCC(O)(c2cccc(C(F)(F)F)c2)CC1 [Example 48, 1-(4,5,6,11-tetrahydro-1H-pyrazolo[4′,3′:6,7]cyclohepta[1,2-b]indol-8-ylcarbonyl)-4-[3-(trifluoromethyl)phenyl]piperidin-4-ol]
≥ 80% | O=C(c1ccc2[nH]c3c(c2c1)CCCc1cn[nH]c1-3)N1CCC(O)(c2ccccc2F)CC1 [Example 43, 4-(2-fluorophenyl)-1-(4,5,6,11-tetrahydro-1H-pyrazolo[4′,3′:6,7]cyclohepta[1,2-b]indol-8-ylcarbonyl)piperidin-4-ol]
